Assay results as given in US20230011269A1, “PHARMACEUTICAL COMPOSITION COMPRISING A POTENT INHIBITOR OF URAT1” (Ardea Biosciences, Inc., priority 2015, published 2023).
Like-named read-outs stand apart in the source and are kept apart here.

Columns and labels:
[1] = Phase 1 single dose study, immediate release formulations: plasma pharmacokinetics; type: in vivo, human; details: for AUC(0-t): read-out: AUC0-24
Text: (§1) A phase 1, randomized, double-blind, placebo-controlled study in healthy adult male volunteers evaluated single rising doses and the preliminary food effect for 2-((3-(4-cyanonaphthalen-1-yl)pyridine-4-yl)thio)-2-methylpropanoic acid at 6 dose groups with 8 subjects per group. […] Subjects in each dose group were randomized to receive a single dose of either 2-((3-(4-cyanonaphthalen-1-yl)pyridine-4-yl)thio)-2-methylpropanoic acid (6 subjects) or placebo (2 subjects). 2-((3-(4-cyanonaphthalen-1-yl)pyridine-4-yl)thio)-2-methylpropanoic acid was supplied as 1 mg oral solution, 2 mg oral solution, 5 mg tablets, or 20 mg tablets (depending on dose level).
Segment A evaluated single rising doses of 2 mg, 5 mg, 20 mg and 40 mg and the preliminary food effect of 2-((3-(4-cyanonaphthalen-1-yl)pyridine-4-yl)thio)-2-methylpropanoic acid at the 5 mg and 20 mg doses followed by multiple ascending doses of 1 mg, 5 mg and 10 mg qd in Segment B.
The oral solution was prepared by the clinical pharmacist in bulk within 24 hours of administration. The oral solution of 2-((3-(4-cyanonaphthalen-1-yl)pyridine-4-yl)thio)-2-methylpropanoic acid (0.033 mg/mL concentration) was prepared as a mixture of the appropriate amount of 2-((3-(4-cyanonaphthalen-1-yl)pyridine-4-yl)thio)-2-methylpropanoic acid powder, anhydrous dibasic sodium phosphate, and sterile water for irrigation; placebo oral solution was prepared as a vehicle using anhydrous dibasic sodium phosphate and sterile water for irrigation. […] Plasma samples were collected at the following time-points in relation to dosing on Day 1: pre-dose (within 30 minutes before dosing) and at 0.25, 0.5, 0.75, 1, 1.5, 2, 2.5, 3, 4, 5, 6, 8, 10, 12, 24, 30, 36, 48, 54, 60, and 72 hours post-dose, and were analysed for 2-((3-(4-cyanonaphthalen-1-yl)pyridine-4-yl)thio)-2-methylpropanoic acid content.

serum urate = assay: Phase 1 single dose study, immediate release formulations: serum urate lowering; type: in vivo, human; details: mean maximum observed percentage change from pre-dose in serum urate concentrations (Emax)
Text: as §1
The mean plasma concentration-time profiles for the IR formulations under fed and fasted conditions are depicted in FIGS. 3a and 3b. Absorption of 2-((3-(4-cyanonaphthalen-1-yl)pyridine-4-yl)thio)-2-methylpropanoic acid following a single oral dose under fasted conditions was rapid. […] When 2-((3-(4-cyanonaphthalen-1-yl)pyridine-4-yl)thio)-2-methylpropanoic acid was administered with food, slightly slower absorption and lower exposure were observed. […] Important pharmacodynamic parameters related to the serum Uric Acid lowering effects are shown in the following two tables: […]

[2] = Phase 1 crossover study MR4 4 x 2.5 mg vs 10 mg tablet, food effect: plasma pharmacokinetics; details: male, human, in vivo
Experimental: A Phase 1, randomized, open label, 4 way crossover PK and PD study in healthy adult male subjects designed to assess the relative bioavailability of 2-((3-(4-cyanonaphthalen-1-yl)pyridine-4-yl)thio)-2-methylpropanoic acid 2.5 mg MR tablets administered as a 10 mg dose (4×2.5 mg tablets) and a single 2-((3-(4-cyanonaphthalen-1-yl)pyridine-4-yl)thio)-2-methylpropanoic acid 10 mg MR tablet. The 10 mg MR tablet was prepared as described in Example 5a. This study also assessed the effect of a low fat and high fat meal on the PK and PD of 2-((3-(4-cyanonaphthalen-1-yl)pyridine-4-yl)thio)-2-methylpropanoic acid 10 mg MR tablets. Sixteen subjects were randomized to 1 of 4 treatment sequences. The treatments administered on Days 1 or 5 according to the randomization schedule were as follows: • Treatment A: 10 mg dose of 2-((3-(4-cyanonaphthalen-1-yl)pyridine-4-yl)thio)-2-methylpropanoic acid, administered as 4×2.5 mg ER tablets, in the fasted state. • Treatment B: 10 mg dose of 2-((3-(4-cyanonaphthalen-1-yl)pyridine-4-yl)thio)-2-methylpropanoic acid, administered as a single 10 mg ER tablet, in the fasted state. […]

[3] = 2 mg single dose, Fasted, oral solution, Group 5, N = 6, Geomean
[4] = 5 mg single dose, Fasted, 1 × 5 mg tablet, Group 4, N = 6, Geomean
[5] = 5 mg single dose, Fed, 1 × 5 mg tablet, Group 6, N = 6, Geomean
[6] = 20 mg single dose, Fasted, 1 × 20 mg tablet, Group 1, N = 6, Geomean
[7] = 20 mg single dose, Fed, 1 × 20 mg tablet, Group 3, N = 6, Geomean
[8] = 40 mg single dose, Fasted, 2 × 20 mg tablet, Group 2, N = 6, Geomean

- AUC∞ [1, 3]: 45 ng·h/mL
- Cmax [1, 3]: 36.4 ng/mL
- t1/2 [1, 3]: 12.1 h
- Tmax ([1]; 2 mg single dose, Fasted, oral solution, Group 5, N = 6, median): 0.500 h
- AUC∞ [1, 4]: 121 ng·h/mL
- Cmax [1, 4]: 72.9 ng/mL
- t1/2 [1, 4]: 14.2 h
- AUC∞ [1, 5]: 92.8 ng·h/mL
- Cmax [1, 5]: 45.7 ng/mL
- t1/2 [1, 5]: 12.7 h
- Tmax ([1]; 5 mg single dose, Fed, 1 × 5 mg tablet, Group 6, N = 6, median): 1.25 h
- Cmax ([1]; 5 mg/Fasted, immediate release, read-out: Cmax): 72.9 ng/mL
- Cmax [1, 6]: 384 ng/mL
- t1/2 [1, 6]: 10.9 h
- Tmax ([1]; 20 mg single dose, Fasted, 1 × 20 mg tablet, Group 1, N = 6, median): 0.500 h
- AUC∞ [1, 7]: 415 ng·h/mL
- Cmax [1, 7]: 181 ng/mL
- t1/2 [1, 7]: 13.8 h
- Tmax ([1]; 20 mg single dose, Fed, 1 × 20 mg tablet, Group 3, N = 6, median): 1.25 h
- AUC∞ [1, 8]: 1270 ng·h/mL
- t1/2 [1, 8]: 9.51 h
- Tmax ([1]; 40 mg single dose, Fasted, 2 × 20 mg tablet, Group 2, N = 6, median): 0.750 h
- AUC(0-t) ([1]; male, human, plasma, oral, 2 mg, 2 mg/Fasted, immediate release): 38.8 ng·h/mL
- AUC(0-t) ([1]; male, human, plasma, oral, 5 mg, 5 mg single dose, Fasted, 1 × 5 mg tablet, Group 4, N = 6, Geomean): 102 ng·h/mL
- Tmax ([1]; male, human, plasma, oral, 5 mg, 5 mg single dose, Fasted, 1 × 5 mg tablet, Group 4, N = 6, median, read-out: Tmax): 0.625 h
- AUC(0-t) ([1]; male, human, plasma, oral, 5 mg, 5 mg single dose, Fed, 1 × 5 mg tablet, Group 6, N = 6, Geomean): 75.2 ng·h/mL
- AUC(0-t) ([1]; male, human, plasma, oral, 5 mg, 5 mg/Fasted, immediate release): 102 ng·h/mL
- AUC(0-t) ([1]; male, human, plasma, oral, 20 mg, 20 mg single dose, Fasted, 1 × 20 mg tablet, Group 1, N = 6, Geomean): 463 ng·h/mL
- AUC(0-t) ([1]; male, human, plasma, oral, 20 mg, 20 mg single dose, Fed, 1 × 20 mg tablet, Group 3, N = 6, Geomean): 350 ng·h/mL
- AUC(0-t) ([1]; male, human, plasma, oral, 20 mg, 20 mg/Fasted, immediate release): 463 ng·h/mL
- AUC(0-t) ([1]; male, human, plasma, oral, 40 mg, 40 mg single dose, Fasted, 2 × 20 mg tablet, Group 2, N = 6, Geomean): 1070 ng·h/mL
- AUC(0-t) ([1]; male, human, plasma, oral, 40 mg, 40 mg/Fasted, immediate release): 1070 ng·h/mL
- AUC(0-inf) ([1]; male, human, plasma, oral, 20 mg single dose, Fasted, 1 × 20 mg tablet, Group 1, N = 6, Geomean): 540 ng·h/mL
- Cmax ([1]; male, human, plasma, oral, 40 mg single dose, Fasted, 2 × 20 mg tablet, Group 2, N = 6, Geomean, read-out: Cmax): 760 ng/mL
- AUC(0-t) ([1]; male, human, plasma, po, 2 mg, 2 mg single dose, Fasted, oral solution, Group 5, N = 6, Geomean): 38.8 ng·h/mL
- Tmax ([1]; male, human, plasma, po, 5 mg, immediate release tablet, oral, fasted, human, read-out: Tmax (called mean in b5, median)): 0.6 h
- Tmax ([1]; male, human, plasma, po, 5 mg, immediate release tablet, oral, fasted, human, read-out: time at which the peak plasma concentration is observed (Tmax), range): 0.25 to 1.5 h
- Cmax ([1]; male, human, plasma, po, 5 mg, read-out: geometric mean maximum plasma concentration (Cmax)): ~73 ng/mL
- decrease of AUC∞ by a low-fat meal compared with the fasted state [2]: ~17%
- decrease of Cmax by a low-fat meal compared with the fasted state [2]: approximately 21%
SMILES: CC(C)(Sc1ccncc1-c1ccc(C#N)c2ccccc12)C(=O)O [2-((3-(4-cyanonaphthalen-1-yl)pyridine-4-yl)thio)-2-methylpropanoic acid]
- Mean % change in sUA from predose (serum urate; 2 mg/Fasted): 8%
- Mean % change in sUA from predose (serum urate; 5 mg/Fasted): 15%
- Mean % change in sUA from predose (serum urate; 20 mg/Fasted): 43%
- Mean % change in sUA from predose (serum urate; 40 mg/Fasted): 58%
